Laboratory results as given in US20230203081A1, “LINCOSAMIDE ANTIBIOTICS AND USES THEREOF” (President and Fellows of Harvard College, priority 2020, published 2023).
Values after ≈ are worked out from the molar mass of the structure shown.

Tested on: broad panel of different clinical isolates
Experiment: microbe, parasite or virus in culture
Format: cell-based
How it was run: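 Per CLSI, MICs by broth microdilution or agar dilution; strains other than streptococci and anaerobes were sub-cultured overnight at 35° C on blood agar, with a final broth inoculum of 5×10^5 CFU/mL.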

[1] = Acinetobacter baumannii, A. baumannii HAV#651, Clinical
[2] = Acinetobacter baumannii, A. baumannii HAV#652 Clinical
[3] = Acinetobacter baumannii, A. baumannii HAV#653, Clinical
[4] = Acinetobacter baumannii, A. baumannii HAV#654, Clinical
[5] = Acinetobacter baumannii, A. baumannii HAV#655, Clinical
[6] = Acinetobacter baumannii, A. baumannii HAV#656, Clinical
[7] = Acinetobacter baumannii, A. baumannii HAV#657, Clinical
[8] = Acinetobacter baumannii, A. baumannii HAV#658, Clinical
[9] = Acinetobacter baumannii, A. baumannii HAV#659, Clinical
[10] = Acinetobacter baumannii, A. baumannii HAV#660, Clinical
[11] = Acinetobacter baumannii, A. baumannii HAV#661, Clinical
[12] = Acinetobacter baumannii, A. baumannii HAV#662, Clinical
[13] = Acinetobacter baumannii, A. baumannii HAV#663, Clinical
[14] = Acinetobacter baumannii, A. baumannii HAV#664, Carbapenem R
[15] = Enterococcus faecalis, E. faecalis HAV#602, Clincal
[16] = Enterococcus faecalis, E. faecalis HAV#607, Clinical
[17] = Enterococcus faecalis, E. faecalis HAV#608, Clinical
[18] = Enterococcus faecalis, E. faecalis HAV#609, Clinical
[19] = Enterococcus faecalis, E. faecalis HAV#610, Clinical
[20] = Enterococcus faecalis, S. faecalis 5074, Line R
[21] = Enterococcus faecalis, VRE, E. faecalis HAV#251, Clinical VRE
[22] = Enterococcus faecalis, VRE, E. faecalis HAV#606, Clinical
[23] = Enterococcus faecium, E. faecium HAV#317, Clinical
[24] = Enterococcus faecium, E. faecium HAV#324, Clinical
[25] = Enterococcus faecium, E. faecium HAV#327, Clinical
[26] = Enterococcus faecium, E. faecium HAV#328, Clinical
[27] = Enterococcus faecium, E. faecium HAV#329, Clinical
[28] = Enterococcus faecium, VRE, E. faecium HAV#318, VanA
[29] = Enterococcus faecium, VRE, E. faecium HAV#319, Line R & Vanco R
[30] = Enterococcus faecium, VRE, E. faecium HAV#320, Clinical
[31] = Escherichia coli, E. coli HAV#503, Clinical
[32] = Escherichia coli, E. coli HAV#511, Clinical
[33] = Escherichia coli, E. coli HAV#512, Clinical
[34] = Escherichia coli, E. coli HAV#513, Clinical
[35] = Escherichia coli, E. coli HAV#514, Clinical
[36] = Escherichia coli, E. coli HAV#516, ESBL-producing
[37] = Haemophilus influenzae, ATCC9007, H. influenzae HAV#376, ATCC-9007
[38] = Klebsiella pneumoniae, K. pneumoniae HAV#404, Clinical
[39] = Klebsiella pneumoniae, K. pneumoniae HAV#405, Clinical
[40] = Klebsiella pneumoniae, K. pneumoniae HAV#406, Clinical
[41] = Klebsiella pneumoniae, K. pneumoniae HAV#407, Clinical
[42] = Klebsiella pneumoniae, K. pneumoniae HAV#408, Clinical
[43] = Klebsiella pneumoniae, K. pneumoniae HAV#409, ESBL-producing
[44] = Staphylococcus aureus, MRSA, S. aureus HAV#0107, MRSA Col(Colindale, England)
[45] = Staphylococcus aureus, MRSA, S. aureus HAV#218, Line R
[46] = Staphylococcus aureus, MRSA, S. aureus HAV#220, Line R
[47] = Staphylococcus aureus, MSSA, S. aureus HAV#219, Line R
[48] = Staphylococcus aureus, S. aureus HAV#051, mecA, norA, spcl, ermA, aad1, aac6′-aph2″
[49] = Staphylococcus aureus, S. aureus HAV#052, mecA, norA, fosB, blaZ
[50] = Staphylococcus aureus, S. aureus HAV#053 mecA, norA, fosB
[51] = Staphylococcus aureus, S. aureus HAV#054, mecA, norA, spcl, aad1, fosB, ermA, aac6′-aph2″, blaZ
[52] = Staphylococcus aureus, S. aureus HAV#211, Clinical
[53] = Staphylococcus aureus, S. aureus HAV#212, Clinical
[54] = Staphylococcus aureus, S. aureus HAV#213, Clinical
[55] = Staphylococcus aureus, S. aureus HAV#214, Clinical
[56] = Staphylococcus aureus, S. aureus HAV#215, Clinical
[57] = Staphylococcus aureus, S. aureus HAV#216, Clinical, cfr
[58] = Staphylococcus aureus, S. aureus HAV#217, cfr
[59] = Staphylococcus aureus, VISA, S. aureus HAV#203, Clinical (VISA)
[60] = Staphylococcus epidermidis, S. epidermidis HAV# 275 Clinical, cfr
[61] = Staphylococcus epidermidis, S. epidermidis HAV# 276, cfr
[62] = Staphylococcus epidermidis, S. epidermidis HAV#277, Line R
[63] = Staphylococcus epidermidis, S. epidermidis HAV#278 Line R
[64] = Staphylococcus epidermidis, S. epidermidis HAV#279, Line R
[65] = Staphylococcus haemolyticus, S. haemolyticus 5052, Line R & Methicillin R
[66] = Streptococcus pneumoniae, ATCC700673, S. pneumoniae HAV#352, ATCC 700673, MDR
[67] = Streptococcus pneumoniae, ATCCBAA255, S. pneumoniae HAV#354, ATCC-BAA-255
[68] = Streptococcus pneumoniae, ATCCBAA334, S. pneumoniae HAV#353, ATCC-BAA-334
[69] = Streptococcus pneumoniae, S. pneumoniae HAV#356, Clinical
[70] = Streptococcus pneumoniae, S. pneumoniae HAV#358, Clinical

C[C@H]1c2cccc(O)c2C(=O)C2=C(O)[C@]3(O)C(=O)C(C(N)=O)=C(O)[C@@H](N(C)C)[C@@H]3[C@@H](O)[C@@H]21 [Doxycycline]
MIC [1]: 0.125 µg/mL (≈ 0.281 µM)
MIC [2]: 0.5 µg/mL (≈ 1.13 µM)
MIC [3]: 0.125 µg/mL (≈ 0.281 µM)
MIC [4]: < 0.06 µg/mL
MIC [5]: 0.5 µg/mL (≈ 1.13 µM)
MIC [6]: 32 µg/mL (≈ 72 µM)
MIC [7]: 0.5 µg/mL (≈ 1.13 µM)
MIC [8]: 0.06 µg/mL (≈ 0.135 µM)
MIC [9]: 0.5 µg/mL (≈ 1.13 µM)
MIC [10]: 1 µg/mL (≈ 2.25 µM)
MIC [11]: 0.125 µg/mL (≈ 0.281 µM)
MIC [12]: 0.25 µg/mL (≈ 0.563 µM)
MIC [13]: 0.125 µg/mL (≈ 0.281 µM)
MIC [14]: 2 µg/mL (≈ 4.5 µM)
MIC [15]: 0.25 µg/mL (≈ 0.563 µM)
MIC [16]: 1 µg/mL (≈ 2.25 µM)
MIC [17]: 0.5 µg/mL (≈ 1.13 µM)
MIC [18]: 8 µg/mL (≈ 18 µM)
MIC [19]: 0.5 µg/mL (≈ 1.13 µM)
MIC [20]: 64 µg/mL (≈ 144 µM)
MIC [21]: 0.125 µg/mL (≈ 0.281 µM)
MIC [22]: 16 µg/mL (≈ 36 µM)
MIC [23]: 0.25 µg/mL (≈ 0.563 µM)
MIC [24]: 0.25 µg/mL (≈ 0.563 µM)
MIC [25]: 0.25 µg/mL (≈ 0.563 µM)
MIC [26]: 0.25 µg/mL (≈ 0.563 µM)
MIC [27]: 0.25 µg/mL (≈ 0.563 µM)
MIC [28]: 4 µg/mL (≈ 9 µM)
MIC [29]: 16 µg/mL (≈ 36 µM)
MIC [30]: > 128 µg/mL
MIC [31]: 32 µg/mL (≈ 72 µM)
MIC [32]: 2 µg/mL (≈ 4.5 µM)
MIC [33]: 2 µg/mL (≈ 4.5 µM)
MIC [34]: 32 µg/mL (≈ 72 µM)
MIC [35]: 2 µg/mL (≈ 4.5 µM)
MIC [36]: 8 µg/mL (≈ 18 µM)
MIC [37]: 0.25 µg/mL (≈ 0.563 µM)
MIC [38]: 4 µg/mL (≈ 9 µM)
MIC [39]: 2 µg/mL (≈ 4.5 µM)
MIC [40]: 2 µg/mL (≈ 4.5 µM)
MIC [41]: 32 µg/mL (≈ 72 µM)
MIC [42]: 32 µg/mL (≈ 72 µM)
MIC [43]: 16 µg/mL (≈ 36 µM)
MIC [44]: 64 µg/mL (≈ 144 µM)
MIC [45]: 16 µg/mL (≈ 36 µM)
MIC [46]: 8 µg/mL (≈ 18 µM)
MIC [47]: 1 µg/mL (≈ 2.25 µM)
MIC [48]: 0.5 µg/mL (≈ 1.13 µM)
MIC [49]: 0.5 µg/mL (≈ 1.13 µM)
MIC [50]: 0.5 µg/mL (≈ 1.13 µM)
MIC [51]: 2 µg/mL (≈ 4.5 µM)
MIC [52]: 4 µg/mL (≈ 9 µM)
MIC [53]: 0.25 µg/mL (≈ 0.563 µM)
MIC [54]: 0.125 µg/mL (≈ 0.281 µM)
MIC [55]: 0.25 µg/mL (≈ 0.563 µM)
MIC [56]: 0.25 µg/mL (≈ 0.563 µM)
MIC [57]: 0.25 µg/mL (≈ 0.563 µM)
MIC [58]: 4 µg/mL (≈ 9 µM)
MIC [59]: 8 µg/mL (≈ 18 µM)
MIC [60]: 1 µg/mL (≈ 2.25 µM)
MIC [61]: 2 µg/mL (≈ 4.5 µM)
MIC [62]: 8 µg/mL (≈ 18 µM)
MIC [63]: 4 µg/mL (≈ 9 µM)
MIC [64]: 32 µg/mL (≈ 72 µM)
MIC [65]: 4 µg/mL (≈ 9 µM)
MIC [66]: 4 µg/mL (≈ 9 µM)
MIC [67]: 0.25 µg/mL (≈ 0.563 µM)
MIC [68]: 0.25 µg/mL (≈ 0.563 µM)
MIC [69]: 2 µg/mL (≈ 4.5 µM)
MIC [70]: 0.25 µg/mL (≈ 0.563 µM)

CN[C@H](CC(C)C)C(=O)N[C@H]1C(=O)N[C@@H](CC(N)=O)C(=O)N[C@H]2C(=O)N[C@H]3C(=O)N[C@H](C(=O)N[C@H](C(=O)O)c4cc(O)cc(O)c4-c4cc3ccc4O)[C@H](O)c3ccc(c(Cl)c3)Oc3cc2cc(c3O[C@@H]2O[C@H](CO)[C@@H](O)[C@H](O)[C@H]2O[C@H]2C[C@](C)(N)[C@H](O)[C@H](C)O2)Oc2ccc(cc2Cl)[C@H]1O [Vancomycin]
MIC [1]: 128 µg/mL (≈ 88.3 µM)
MIC [2]: 128 µg/mL (≈ 88.3 µM)
MIC [3]: 128 µg/mL (≈ 88.3 µM)
MIC [4]: 128 µg/mL (≈ 88.3 µM)
MIC [5]: 128 µg/mL (≈ 88.3 µM)
MIC [6]: > 128 µg/mL
MIC [7]: > 128 µg/mL
MIC [8]: > 128 µg/mL
MIC [9]: > 128 µg/mL
MIC [10]: > 128 µg/mL
MIC [11]: 128 µg/mL (≈ 88.3 µM)
MIC [12]: > 128 µg/mL
MIC [13]: 128 µg/mL (≈ 88.3 µM)
MIC [14]: > 128 µg/mL
MIC [15]: 4 µg/mL (≈ 2.76 µM)
MIC [16]: > 128 µg/mL
MIC [17]: 16 µg/mL (≈ 11 µM)
MIC [18]: 32 µg/mL (≈ 22.1 µM)
MIC [19]: 32 µg/mL (≈ 22.1 µM)
MIC (Enterococcus faecalis, S. faecalis 5060, Line R & Vanco R): > 256 µg/mL
MIC [20]: 2 µg/mL (≈ 1.38 µM)
MIC [21]: 8 µg/mL (≈ 5.52 µM)
MIC [22]: > 128 µg/mL
MIC [23]: 2 µg/mL (≈ 1.38 µM)
MIC [24]: > 128 µg/mL
MIC [25]: 4 µg/mL (≈ 2.76 µM)
MIC [26]: > 128 µg/mL
MIC [27]: > 128 µg/mL
MIC [28]: > 64 µg/mL
MIC [29]: > 256 µg/mL
MIC [30]: > 128 µg/mL
MIC [31]: 128 µg/mL (≈ 88.3 µM)
MIC [32]: > 128 µg/mL
MIC [33]: > 128 µg/mL
MIC [34]: > 128 µg/mL
MIC [35]: 128 µg/mL (≈ 88.3 µM)
MIC [36]: 128 µg/mL (≈ 88.3 µM)
MIC [37]: > 64 µg/mL
MIC [38]: > 128 µg/mL
MIC [39]: > 128 µg/mL
MIC [40]: > 128 µg/mL
MIC [41]: > 128 µg/mL
MIC [42]: > 128 µg/mL
MIC [43]: > 128 µg/mL
MIC [44]: 2 µg/mL (≈ 1.38 µM)
MIC [45]: 1 µg/mL (≈ 0.69 µM)
MIC [46]: 1 µg/mL (≈ 0.69 µM)
MIC [47]: 1 µg/mL (≈ 0.69 µM)
MIC [48]: 2 µg/mL (≈ 1.38 µM)
MIC [49]: 2 µg/mL (≈ 1.38 µM)
MIC [50]: 2 µg/mL (≈ 1.38 µM)
MIC [51]: 1 µg/mL (≈ 0.69 µM)
MIC [52]: 0.5 µg/mL (≈ 0.345 µM)
MIC [53]: 0.5 µg/mL (≈ 0.345 µM)
MIC [54]: 0.5 µg/mL (≈ 0.345 µM)
MIC [55]: 0.5 µg/mL (≈ 0.345 µM)
MIC [56]: 1 µg/mL (≈ 0.69 µM)
MIC [57]: > 64 µg/mL
MIC [58]: > 64 µg/mL
MIC [59]: 8 µg/mL (≈ 5.52 µM)
MIC [60]: > 64 µg/mL
MIC [61]: > 64 µg/mL
MIC [62]: 2 µg/mL (≈ 1.38 µM)
MIC [63]: 2 µg/mL (≈ 1.38 µM)
MIC [64]: 2 µg/mL (≈ 1.38 µM)
MIC [65]: 1 µg/mL (≈ 0.69 µM)
MIC [66]: 0.5 µg/mL (≈ 0.345 µM)
MIC [67]: 1 µg/mL (≈ 0.69 µM)
MIC [68]: 0.5 µg/mL (≈ 0.345 µM)
MIC [69]: 2 µg/mL (≈ 1.38 µM)
MIC [70]: 1 µg/mL (≈ 0.69 µM)
